Source: PubChem BioAssay AID330 (DTP/NCI, 2004)
Inconclusive results and toxic doses are left out. Rule for the calls: active = survival T/C of 150% or more; inactive = T/C below 125% in these data.

System: P388 leukemia ip, CD2F1 mice, survival T/C
Assay: NCI In Vivo Anticancer Drug Screen. Data for tumor model P388 Leukemia (intraperitoneal) in CD2F1 (CDF1) mice
Settings: endpoint: median survival time, higher = longer survival
Summary of the method: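 Mice carrying the transplanted tumor received test compound or vehicle. Survival was recorded in each group, and the value is the treated-group measurement divided by that of the vehicle-treated control group.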

[1] = dose: 400.0 mg/kg/injection, schedule: Q01DX001 (ip), vehicle: saline with Tween-80
[2] = dose: 50.0 mg/kg/injection, schedule: Q01DX009 (ip), vehicle: Klucel (hydroxypropylcellulose) (HPC)
[3] = dose: 100.0 mg/kg/injection, schedule: Q01DX009 (ip), vehicle: Klucel (hydroxypropylcellulose) (HPC)
[4] = dose: 200.0 mg/kg/injection, schedule: Q01DX009 (ip), vehicle: Klucel (hydroxypropylcellulose) (HPC)
[5] = dose: 50.0 mg/kg/injection, schedule: Q01DX005 (ip), vehicle: Klucel (hydroxypropylcellulose) (HPC)
[6] = dose: 100.0 mg/kg/injection, schedule: Q01DX005 (ip), vehicle: Klucel (hydroxypropylcellulose) (HPC)
[7] = dose: 200.0 mg/kg/injection, schedule: Q01DX005 (ip), vehicle: Klucel (hydroxypropylcellulose) (HPC)
[8] = dose: 50.0 mg/kg/injection, schedule: Q01DX005 (ip), vehicle: saline with Tween-80
[9] = dose: 100.0 mg/kg/injection, schedule: Q01DX005 (ip), vehicle: saline with Tween-80
[10] = dose: 200.0 mg/kg/injection, schedule: Q01DX005 (ip), vehicle: saline with Tween-80
[11] = dose: 50.0 mg/kg/injection, schedule: Q01DX009 (ip), vehicle: saline
[12] = dose: 100.0 mg/kg/injection, schedule: Q01DX009 (ip), vehicle: saline
[13] = dose: 200.0 mg/kg/injection, schedule: Q01DX009 (ip), vehicle: saline
[14] = dose: 50.0 mg/kg/injection, schedule: Q01DX009 (ip), vehicle: saline with Tween-80
[15] = dose: 100.0 mg/kg/injection, schedule: Q01DX009 (ip), vehicle: saline with Tween-80
[16] = dose: 60.0 mg/kg/injection, schedule: Q01DX005 (ip), vehicle: Klucel (hydroxypropylcellulose) (HPC)
[17] = dose: 120.0 mg/kg/injection, schedule: Q01DX005 (ip), vehicle: Klucel (hydroxypropylcellulose) (HPC)

Measured: T/C

CC12CCC(O)CC1CCC1C2CCC2(C)C(c3ccc(=O)oc3)CCC12O (centres undefined)
inactive: dose: 0.31 mg/kg/injection, schedule: Q01DX009 (ip), vehicle: saline with Tween-80 100 % of control | dose: 0.62 mg/kg/injection, schedule: Q01DX009 (ip), vehicle: saline with Tween-80 97 % of control | dose: 1.25 mg/kg/injection, schedule: Q01DX009 (ip), vehicle: saline with Tween-80 97 % of control | dose: 2.5 mg/kg/injection, schedule: Q01DX009 (ip), vehicle: saline with Tween-80 103 % of control

N#CC(/C=C/c1ccccc1)Nc1ccccc1N (centres undefined)
inactive: dose: 100.0 mg/kg/injection, schedule: Q01DX001 (ip), vehicle: saline with Tween-80 100 % of control | [1] 100 % of control

Nn1cnnc1SCc1ccccc1
inactive: dose: 100.0 mg/kg/injection, schedule: Q01DX001 (ip), vehicle: other 100 % of control | dose: 200.0 mg/kg/injection, schedule: Q01DX001 (ip), vehicle: other 100 % of control | dose: 400.0 mg/kg/injection, schedule: Q01DX001 (ip), vehicle: other 100 % of control

CCCCNc1cc(Nc2ccc(Br)cc2)nc(N)n1
inactive: dose: 6.25 mg/kg/injection, schedule: Q04DX003 (ip), vehicle: saline with Tween-80 106 % of control | dose: 12.5 mg/kg/injection, schedule: Q04DX003 (ip), vehicle: saline with Tween-80 99 % of control | dose: 25.0 mg/kg/injection, schedule: Q04DX003 (ip), vehicle: saline with Tween-80 106 % of control | dose: 50.0 mg/kg/injection, schedule: Q04DX003 (ip), vehicle: saline with Tween-80 100 % of control

CCCCCCCCC(=O)C(=O)c1ccc(O)cc1O
inactive: [2] 113 % of control | [3] 113 % of control | [4] 113 % of control

NC(=O)NC1CC1c1ccc(Cl)c(Cl)c1 (centres undefined)
inactive: [5] 103 % of control | [6] 99 % of control | [7] 114 % of control

C/C(=C1/N=C(c2ccccc2)OC1=O)c1ccccc1
inactive: [8] 98 % of control | [9] 96 % of control | [10] 98 % of control

CC(C)COC1CCc2ncccc2O1 (centres undefined)
inactive: [11] 104 % of control | [12] 104 % of control | [13] 103 % of control

C/C=C(\C(=O)O)S(=O)(=O)O.[Pb]
inactive: dose: 25.0 mg/kg/injection, schedule: Q01DX009 (ip), vehicle: saline with Tween-80 100 % of control | [14] 90 % of control

O=C(O)C(Cc1ccc([N+](=O)[O-])cc1)NCc1ccco1 (centres undefined)
inactive: [14] 119 % of control | [15] 119 % of control

CCOc1c(C)cc(Cc2ccc3c(c2)OCO3)cc1C
inactive: [8] 108 % of control | [9] 101 % of control | [10] 92 % of control

Cc1noc(C)c1CON
inactive: dose: 75.0 mg/kg/injection, schedule: Q01DX009 (ip), vehicle: saline with Tween-80 91 % of control | dose: 75.0 mg/kg/injection, schedule: Q04DX003 (ip), vehicle: saline 95 % of control | dose: 150.0 mg/kg/injection, schedule: Q04DX003 (ip), vehicle: saline 95 % of control | dose: 300.0 mg/kg/injection, schedule: Q04DX003 (ip), vehicle: saline 91 % of control

O=S1(=O)N2CN3CN(C2)CN1C3
inactive: dose: 6.25 mg/kg/injection, schedule: Q04DX003 (ip), vehicle: Klucel (hydroxypropylcellulose) (HPC) 106 % of control | dose: 12.5 mg/kg/injection, schedule: Q04DX003 (ip), vehicle: Klucel (hydroxypropylcellulose) (HPC) 104 % of control | dose: 25.0 mg/kg/injection, schedule: Q04DX003 (ip), vehicle: Klucel (hydroxypropylcellulose) (HPC) 111 % of control | dose: 50.0 mg/kg/injection, schedule: Q04DX003 (ip), vehicle: Klucel (hydroxypropylcellulose) (HPC) 106 % of control

CCOC1C(=O)C=COC1C(C)C (centres undefined)
inactive: dose: 60.0 mg/kg/injection, schedule: Q01DX005 (ip), vehicle: saline 108 % of control | dose: 120.0 mg/kg/injection, schedule: Q01DX005 (ip), vehicle: saline 104 % of control | dose: 240.0 mg/kg/injection, schedule: Q01DX005 (ip), vehicle: saline 110 % of control

CSc1nc2ccc(NC(=O)CCC(=O)O)cc2s1
inactive: dose: 6.25 mg/kg/injection, schedule: Q01DX009 (ip), vehicle: Klucel (hydroxypropylcellulose) (HPC) 104 % of control | dose: 12.5 mg/kg/injection, schedule: Q01DX009 (ip), vehicle: Klucel (hydroxypropylcellulose) (HPC) 101 % of control | dose: 25.0 mg/kg/injection, schedule: Q01DX009 (ip), vehicle: Klucel (hydroxypropylcellulose) (HPC) 107 % of control

COc1ccc(CC2CCCNC2C(=O)O)cc1 (centres undefined)
inactive: [14] 114 % of control | [15] 101 % of control | dose: 200.0 mg/kg/injection, schedule: Q01DX009 (ip), vehicle: saline with Tween-80 99 % of control

[N-]=[N+]=Nc1cc(-c2ccccc2)nc2cc3c(cc12)OCO3
inactive: dose: 60.0 mg/kg/injection, schedule: Q01DX005 (ip), vehicle: saline with Tween-80 97 % of control | dose: 120.0 mg/kg/injection, schedule: Q01DX005 (ip), vehicle: saline with Tween-80 105 % of control | dose: 240.0 mg/kg/injection, schedule: Q01DX005 (ip), vehicle: saline with Tween-80 108 % of control

O=C1OCCCCCCOC(=O)c2ccccc2SSc2ccccc21
inactive: dose: 12.5 mg/kg/injection, schedule: Q01DX001 (ip), vehicle: saline with Tween-80 101 % of control | dose: 25.0 mg/kg/injection, schedule: Q01DX001 (ip), vehicle: saline with Tween-80 94 % of control | dose: 50.0 mg/kg/injection, schedule: Q01DX001 (ip), vehicle: saline with Tween-80 94 % of control | dose: 200.0 mg/kg/injection, schedule: Q01DX001 (ip), vehicle: saline with Tween-80 88 % of control | [1] 90 % of control

S=C(Nc1ccccc1)P(C(=S)Nc1ccccc1)C1CCCCC1
inactive: [5] 108 % of control | [6] 101 % of control | [7] 99 % of control

CC/C(=C(\c1ccccc1)c1ccc(OCCNC)cc1)c1ccccc1
inactive: dose: 15.0 mg/kg/injection, schedule: Q01DX005 (ip), vehicle: Klucel (hydroxypropylcellulose) (HPC) 98 % of control | dose: 30.0 mg/kg/injection, schedule: Q01DX005 (ip), vehicle: Klucel (hydroxypropylcellulose) (HPC) 88 % of control | [16] 92 % of control

Clc1nnn(-c2ccccc2)n1
inactive: dose: 62.5 mg/kg/injection, schedule: Q04DX002 (ip), vehicle: saline with Tween-80 101 % of control | dose: 125.0 mg/kg/injection, schedule: Q04DX002 (ip), vehicle: saline with Tween-80 100 % of control

Cn1c(CC(O)c2nc3ccccc3n2C)nc2ccccc21 (centres undefined)
inactive: [2] 98 % of control | [11] 114 % of control | [3] 105 % of control | [12] 112 % of control | [4] 98 % of control | [13] 107 % of control

Cc1ccc(S(=O)(=O)N/N=C/c2ccc(Cl)cc2O)cc1
inactive: dose: 12.5 mg/kg/injection, schedule: Q01DX005 (ip), vehicle: distilled water + Tween-80 102 % of control | dose: 25.0 mg/kg/injection, schedule: Q01DX005 (ip), vehicle: distilled water + Tween-80 99 % of control | dose: 50.0 mg/kg/injection, schedule: Q01DX005 (ip), vehicle: distilled water + Tween-80 100 % of control | dose: 100.0 mg/kg/injection, schedule: Q01DX005 (ip), vehicle: distilled water + Tween-80 100 % of control | dose: 200.0 mg/kg/injection, schedule: Q01DX005 (ip), vehicle: distilled water + Tween-80 100 % of control

O=C(NC1COB(c2ccc(Br)cc2)OC1c1ccc([N+](=O)[O-])cc1)C(Cl)Cl (centres undefined)
inactive: [16] 102 % of control | [17] 102 % of control | dose: 240.0 mg/kg/injection, schedule: Q01DX005 (ip), vehicle: Klucel (hydroxypropylcellulose) (HPC) 103 % of control

CCC1(N(C)C)C(=O)NC(=O)N(C)C1=O (centres undefined)
inactive: [16] 103 % of control | [17] 101 % of control | dose: 2400.0 mg/kg/injection, schedule: Q01DX005 (ip), vehicle: Klucel (hydroxypropylcellulose) (HPC) 104 % of control

CCCCCC(CN(C)C)C(/C=C/c1ccc(Cl)c(Cl)c1)=N\O (centres undefined)
inactive: [11] 116 % of control | [12] 105 % of control
